Paper PMC7922932, “Molecular Dissection of Escherichia coli CpdB: Roles of the N Domain in Catalysis and Phosphate Inhibition, and of the C Domain in Substrate Specificity and Adenosine Inhibition” (International Journal of Molecular Sciences, 2021)
Where two headings read alike, the source gives them in different places.

What was measured:
Mature CpdB [1] = molecular target: T1, Mature CpdB (Escherichia coli, UniProt P08331); assay: biochemical
Text: In this approach, inhibitors were used as probes for the relevance of those enzyme sites, irrespective of the physiological character and concentrations of the compounds used.
The procedures and detailed conditions to measure the initial rates of phosphohydrolytic reactions were as earlier described [4]. […] The same assay was used with 2′,3′- or 3′,5′-cyclic nucleotides, CDP-choline and bis-4-NPP except that an excess of alkaline phosphatase was included in the reaction mixture as auxiliary enzyme.
The procedures followed to derive kinetic parameters kcat, KM and Ki from initial rate vs. substrate concentration datasets, either in the presence or the absence of inhibitor, were as described elsewhere [49]. Datasets obtained with different substrates in the absence of inhibitors were used to derive kcat and KM values by adjusting the Michaelis-Menten equation to the experimental points by non-linear regression. […] Each one of these equations was simultaneously adjusted (global fit) by nonlinear regression to the three saturation curves of each inhibition experiment, using the Solver function of Microsoft Excel. During the adjustments, Vmax, KM and Ki were left to fluctuate. […] In each set of experiments, the type of inhibition that gave the best fit was used as the model to estimate Ki values.

CpdB_Ndom [2] = molecular target: T2, CpdB_Ndom (Escherichia coli, UniProt P08331, D305N/I97V/M87I); assay: biochemical
T2 construct: GST (N, cleaved yes); made in house; host or cells: E. coli BL21
T2 sequence (P08331 20-354 M87I/I97V/D305N): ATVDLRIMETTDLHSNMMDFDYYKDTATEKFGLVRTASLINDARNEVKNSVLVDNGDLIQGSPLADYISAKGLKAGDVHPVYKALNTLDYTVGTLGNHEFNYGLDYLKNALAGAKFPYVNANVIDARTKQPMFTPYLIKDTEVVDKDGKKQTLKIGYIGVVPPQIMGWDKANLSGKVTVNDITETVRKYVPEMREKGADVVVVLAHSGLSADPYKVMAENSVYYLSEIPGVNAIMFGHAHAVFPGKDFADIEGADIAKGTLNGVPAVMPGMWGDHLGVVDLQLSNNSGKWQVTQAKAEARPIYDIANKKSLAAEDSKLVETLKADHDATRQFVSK
Method: Substrate saturation experiments were run in the absence and the presence of one of these inhibitors at fixed concentrations (Figure 7).
(§1) Reaction mixtures of 100 µL contained, besides the needed amount of enzyme (i.e., 0.02–0.05 µg/mL of mature CpdB, 2 µg/mL of a CpdB point mutant, or 0.2 µg/mL of CpdB_Ndom), 50 mM Tris [Tris(hydroxymethyl)aminomethane]-HCl pH 7.5 (adjusted at 37 °C), 2 mM MnCl2, 0.1 mg/mL bovine serum albumin, and the indicated concentrations of bis-4-NPP and the compound tested as inhibitor. Incubations performed at 37 °C were stopped by addition of 0.5 mL of 200 mM Tris, pH 8.9, 5 mM EDTA (ethylenediaminetetraacetate), immediately followed by A405 measurement (ε = 18.1 mM^−1 cm^−1). This termination procedure was used instead of the addition of a high NaOH concentration, to avoid the known formation of brown precipitates of air-oxidized Mn^2+ hydroxide. On occasions, when a higher sensitivity was needed, reaction mixtures of 500 µL were implemented and termination was performed with 0.1 mL 1M Tris, pH 8.9, 30 mM EDTA.

Mature CpdB [3] = molecular target: T1, Mature CpdB; assay: biochemical; format: biochemical; set-up: A structural model of mature CpdB (aa 20–647) was built; GST (N, cleaved yes); made in house; host or cells: E. coli BL21
Method: as §1

[4] = molecular target: T3, Tyr^544Ala-CpdB (Y544A-CpdB) (Escherichia coli, UniProt P08331, D305N/I514V/I97V/M87I/N471D/S472N/Y544A); assay: biochemical
T3 construct: A structural model of mature CpdB (aa 20–647) was built; GST (N, cleaved yes); made in house; host or cells: E. coli BL21
T3 sequence (P08331 20-647 M87I/I97V/D305N/N471D/S472N/I514V/Y544A): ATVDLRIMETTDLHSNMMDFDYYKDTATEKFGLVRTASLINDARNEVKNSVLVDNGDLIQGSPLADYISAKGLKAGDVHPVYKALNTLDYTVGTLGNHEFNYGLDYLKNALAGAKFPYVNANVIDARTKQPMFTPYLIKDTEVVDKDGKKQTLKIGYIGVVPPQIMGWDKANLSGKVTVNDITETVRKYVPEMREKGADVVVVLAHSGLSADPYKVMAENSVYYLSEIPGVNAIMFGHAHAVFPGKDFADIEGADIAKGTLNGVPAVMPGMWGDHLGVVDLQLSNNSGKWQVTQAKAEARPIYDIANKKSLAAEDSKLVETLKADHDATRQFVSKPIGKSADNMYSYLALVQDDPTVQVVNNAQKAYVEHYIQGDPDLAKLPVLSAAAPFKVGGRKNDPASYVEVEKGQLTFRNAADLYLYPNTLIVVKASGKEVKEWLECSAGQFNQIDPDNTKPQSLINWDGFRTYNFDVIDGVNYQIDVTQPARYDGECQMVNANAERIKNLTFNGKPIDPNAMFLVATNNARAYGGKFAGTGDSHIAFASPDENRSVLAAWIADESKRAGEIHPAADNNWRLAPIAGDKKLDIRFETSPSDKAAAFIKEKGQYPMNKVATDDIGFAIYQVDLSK
Method: (§2) The two point mutants His^117Ala and Tyr^544Ala of mature CpdB were also tested for the inhibition of the hydrolysis of bis-4-NPP by adenosine.
as §1

[5] = molecular target: T4, His^117Ala-CpdB (H117A-CpdB) (Escherichia coli, UniProt P08331, D305N/H117A/I514V/I97V/M87I/N471D/S472N); assay: biochemical
T4 construct: A structural model of mature CpdB (aa 20–647) was built; GST (N, cleaved yes); made in house; host or cells: E. coli BL21
T4 sequence (P08331 20-647 M87I/I97V/H117A/D305N/N471D/S472N/I514V): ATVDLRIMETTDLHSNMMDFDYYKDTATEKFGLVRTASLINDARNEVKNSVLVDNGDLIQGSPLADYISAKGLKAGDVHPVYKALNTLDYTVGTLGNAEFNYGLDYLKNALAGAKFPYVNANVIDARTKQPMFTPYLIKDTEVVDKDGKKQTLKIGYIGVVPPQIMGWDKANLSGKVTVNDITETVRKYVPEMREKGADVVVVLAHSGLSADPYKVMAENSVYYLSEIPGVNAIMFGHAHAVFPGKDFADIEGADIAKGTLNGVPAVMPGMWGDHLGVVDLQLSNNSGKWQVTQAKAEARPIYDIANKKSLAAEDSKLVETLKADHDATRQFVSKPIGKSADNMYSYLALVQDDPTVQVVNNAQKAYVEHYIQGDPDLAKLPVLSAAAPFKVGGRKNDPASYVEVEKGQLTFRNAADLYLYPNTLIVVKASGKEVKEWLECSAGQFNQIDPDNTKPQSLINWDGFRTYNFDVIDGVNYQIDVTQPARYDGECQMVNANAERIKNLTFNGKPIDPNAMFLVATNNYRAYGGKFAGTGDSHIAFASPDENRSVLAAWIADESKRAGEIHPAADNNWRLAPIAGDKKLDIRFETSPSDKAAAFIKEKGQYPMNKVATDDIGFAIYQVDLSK
Method: as §2, §1

CpdB_Ndom [6] = molecular target: T2, CpdB_Ndom; format: biochemical; conditions: CpdB_Ndom; 750 µM bis-4-NPP as the substrate; single illustrative experiments
CpdB_Ndom [7] = format: biochemical, Escherichia coli; conditions: CpdB_Ndom versus CpdB; bis-4-NPP as substrate

T1 sequence (P08331 20-647): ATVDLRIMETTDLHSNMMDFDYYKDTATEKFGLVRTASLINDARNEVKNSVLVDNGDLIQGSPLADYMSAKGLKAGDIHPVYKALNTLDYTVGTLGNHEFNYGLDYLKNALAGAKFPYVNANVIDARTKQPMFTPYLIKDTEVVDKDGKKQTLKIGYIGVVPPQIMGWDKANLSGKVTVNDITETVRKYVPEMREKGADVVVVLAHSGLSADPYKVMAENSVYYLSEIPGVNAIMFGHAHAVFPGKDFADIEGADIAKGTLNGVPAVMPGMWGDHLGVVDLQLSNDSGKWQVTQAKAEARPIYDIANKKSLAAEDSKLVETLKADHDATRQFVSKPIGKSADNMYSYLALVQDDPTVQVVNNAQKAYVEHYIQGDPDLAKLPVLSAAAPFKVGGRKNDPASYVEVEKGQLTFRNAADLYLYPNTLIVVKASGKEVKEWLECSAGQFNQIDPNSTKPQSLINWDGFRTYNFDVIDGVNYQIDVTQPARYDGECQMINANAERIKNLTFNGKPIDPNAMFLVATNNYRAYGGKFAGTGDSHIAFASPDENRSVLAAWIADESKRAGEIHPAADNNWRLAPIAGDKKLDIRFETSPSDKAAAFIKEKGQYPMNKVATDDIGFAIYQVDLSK

Row | Compound | IC50 (Mature CpdB [1]) [µM] | Ki (Mature CpdB [1]) [µM] | IC50 (CpdB_Ndom [2]) [µM] | Ki (CpdB_Ndom [2]) [µM] | IC50 (Mature CpdB [3]) [µM] | Ki (Mature CpdB [3]) [µM] | IC50 [4] [µM] | IC50 [5] [µM] | IC50 (CpdB_Ndom [6]) [µM] | Ki increase in the absence of the C-terminal domain (CpdB_Ndom [7]) | Ki (CpdB_Ndom [2]; CpdB_Ndom, substrate bis-4-NPP, global fit, complete competitive inhibition (Figure 7), read-out: Inhibition constant (Ki)) [µM] | IC50 (Mature CpdB [3]; mature CpdB, 750 µM bis-4-NPP as the substrate, single illustrative experiments, read-out: IC50) [µM] | Ki (Mature CpdB [3]; mature CpdB, substrate bis-4-NPP, global fit, mixed partial inhibition (Figure 5), values without SD are single experiments, read-out: Inhibition constant (Ki)) [µM]
1 | Nc1ncnc2c1ncn2[C@@H]1O[C@H](CO)[C@@H](O)[C@H]1O [Adenosine, adenosine] | 3250 | 41 ± 17 | > 10000 | 48000 | 870 | 160 | ~30000 | 2000 | – | – | – | – | –
2 | phosphate | – | – | – | – | – | – | – | – | 1700 | did not change | 1060 ± 210 | 9000 | 1380 ± 340
